US20150306096A1, “8'-HYDROXY-DIHYDROERGOTAMINE COMPOUNDS AND COMPOSITIONS” (MAP Pharmaceuticals, Inc., priority 2012, published 2015)
Where two headings read alike, the source gives them in different places.

Tests used:
Calcitonin (CGRP) = biological target: T1, Calcitonin (CGRP) (Homo sapiens, UniProt O60894+Q16602); experiment: Aequorin assay; assay type: cell-based; details: CGRP receptor
T1 construct: expressed in transfected cells; host or cells: CHO-K1 with apoaequorin (CHO-AEQ)
Protocol: (§1) Additional receptor agonist/agonist activity assessments were performed using the 8′-OH DHE test compound. Table 12 contains a summary of the cell lines (CHO-K1/HEK293 transfected with relevant human receptor) and the assays performed to detect any agonist or antagonist activity.
Aequorin assays were conducted to monitor activity for 8′-OH DHE against the receptors indicated in Table 12 above (except for mGlu3 and mGlu5). CHO-K1 cells co-expressing mitochondrial apoaequorin and the recombinant human receptor of interest were grown to mid-log phase in culture media without antibiotics and then detached with PBS-EDTA, centrifuged and resuspended in assay buffer (DMEMHAM's F12 with HEPES, without phenol red+0.1% BSA, protease free) at a concentration of 1×10^6 cell/mL. Cells were incubated at RT for at least 4 hours with coelenterazine h. […]
50 μL of the cell suspension was mixed with 50 μL of test or reference agonist in a 96-well plate. The resulting emission of light was recorded using Hamamatsu Functional Drug Screening System 6000 (FDSS 6000) luminometer. […] The resulting emission of light was recorded using the FDSS 6000 luminometer. To standardize the emission of recorded light (and determine of the ‘100% signal’) across plates and across different experiments, some wells contained 100 μM digitonin or a saturating concentration of ATP (20 μM).

Calcitonin (AM1/AM2) = experiment: cAMP HTRF assay; assay type: cell-based, human
Protocol: as §1
(§2) Cells expressing the human recombinant receptor of interest were grown in media without antibiotic and detached by gentle flushing with PBS-EDTA (5 mM EDTA), recovered by centrifugation and resuspended in assay buffer (KRH: 5 mM KCl, 1.25 mM MgSO4, 124 mM NaCl, 25 mM HEPES, 13.3 mM glucose, 1.25 mM KH2PO4, 1.45 mM CaCl2, 0.5 g/L BSA). Dose response curves were performed in parallel with the reference compounds. For agonist tests (96-well plates), 12 μL of cells was mixed with 12 μL of the test 8′-OH DHE compound at increasing concentrations and then incubated for 30 minutes at RT. Lysis buffer was added and after one hour incubation, cAMP concentrations were determined according to the manufacturer specification with the HTRF kit. For antagonist tests (96-well plates), 12 μL of cells was mixed with 6 μL of the test 8′-OH DHE compound at increasing concentrations and then incubated for 10 minutes. […] Lysis buffer was added and after 1 hour incubation, cAMP concentrations were determined according to the manufacturer specification, with the HTRF kit. […]

Adenosine A2a = biological target: T2, Adenosine A2a (Homo sapiens, UniProt P29274); experiment: cAMP HTRF assay; assay type: cell-based
T2 construct: expressed in transfected cells; host or cells: HEK293
Protocol: as §1, §2

[1] = cited from earlier work

T2 sequence (P29274 whole entry): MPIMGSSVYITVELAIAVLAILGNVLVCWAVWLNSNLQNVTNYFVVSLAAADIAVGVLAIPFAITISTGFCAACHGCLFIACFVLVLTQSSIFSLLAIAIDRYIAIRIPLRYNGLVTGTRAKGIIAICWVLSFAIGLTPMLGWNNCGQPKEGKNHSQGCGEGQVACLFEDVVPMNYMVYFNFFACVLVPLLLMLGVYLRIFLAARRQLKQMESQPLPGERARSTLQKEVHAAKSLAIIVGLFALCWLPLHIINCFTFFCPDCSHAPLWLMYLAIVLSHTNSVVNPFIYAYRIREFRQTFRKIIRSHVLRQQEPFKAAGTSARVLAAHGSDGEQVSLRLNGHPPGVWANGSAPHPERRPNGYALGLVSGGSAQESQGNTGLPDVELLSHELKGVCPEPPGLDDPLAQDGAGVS
T1 sequence (Q16602 23-461): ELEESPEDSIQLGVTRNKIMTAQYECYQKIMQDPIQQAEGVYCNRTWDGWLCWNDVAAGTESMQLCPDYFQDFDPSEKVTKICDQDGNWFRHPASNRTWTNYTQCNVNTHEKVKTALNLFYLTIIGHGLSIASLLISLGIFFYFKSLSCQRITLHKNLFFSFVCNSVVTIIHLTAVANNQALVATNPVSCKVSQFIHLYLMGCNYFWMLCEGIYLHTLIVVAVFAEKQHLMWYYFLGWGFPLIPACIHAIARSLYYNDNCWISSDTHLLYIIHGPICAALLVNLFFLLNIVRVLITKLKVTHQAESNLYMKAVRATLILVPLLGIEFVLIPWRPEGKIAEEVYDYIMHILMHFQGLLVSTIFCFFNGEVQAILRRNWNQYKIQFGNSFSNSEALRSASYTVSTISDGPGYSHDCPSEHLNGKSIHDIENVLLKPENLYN
T1 sequence (O60894 27-148 partner): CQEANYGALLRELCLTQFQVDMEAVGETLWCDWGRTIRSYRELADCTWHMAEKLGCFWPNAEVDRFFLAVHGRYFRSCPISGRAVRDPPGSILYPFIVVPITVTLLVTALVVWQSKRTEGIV

Row | Compound | Activity (Agonism: EC50; Antagonism: IC50) (Calcitonin (CGRP)) | Activity (Agonism: EC50; Antagonism: IC50) (Calcitonin (AM1/AM2)) | Activity (Agonism: EC50; Antagonism: IC50) (Adenosine A2a) | fraction of dose extracted in the urine ([1]; IM administered dose) | bioavailability ([1]; IM) | bioavailability ([1]; IN administration) | oral bioavailability ([1]; oral)
1 | CN1C[C@H](C(=O)N[C@]2(C)O[C@@]3(O)[C@@H]4CCC(O)N4C(=O)[C@H](Cc4ccccc4)N3C2=O)C[C@@H]2c3cccc4[nH]cc(c34)C[C@H]21 (stereo partly shown) [8′-OH DHE, 8′-Hydroxy-Dihydroergotamine] | Inactive | Inactive | Inactive |  |  |  | 
2 | CN1C[C@H](C(=O)N[C@]2(C)O[C@@]3(O)[C@@H]4CCCN4C(=O)[C@H](Cc4ccccc4)N3C2=O)C[C@@H]2c3cccc4[nH]cc(c34)C[C@H]21 [DHE, Dihydroergotamine] |  |  |  | 6-7% | 100% | about 40% | 1-3%
